Experimental data from patent US4537773A, “α-Aminoboronic acid derivatives” (E. I. Du Pont de Nemours and Company, priority 1983, dated 1985).
Counter-ions that a name gives are not always drawn.

How the values were obtained:
Leaf Hopper = assay: Insecticidal activity, leaf hopper; assay type: in vivo; details: application rate of 5 lb./acre
Ant = assay: Insecticidal activity, ant feeding; assay type: in vivo; details: application rate of 5 lb./acre
Bollworm = assay: Insecticidal activity, bollworm; assay type: in vivo; details: application rate of 5 lb./acre
Mite = assay: Insecticidal activity, mite; assay type: in vivo; details: application rate of 5 lb./acre
Bean aphid = assay: Insecticidal activity, bean aphid; assay type: in vivo; details: application rate of 5 lb./acre
[1] = biological target: T1, Leucine aminopeptidase (cytosolic) (LAPC) (Sus scrofa, UniProt P28839); assay: IC50 with leucine aminopeptidase (cytosolic); assay type: biochemical, hog; details: 112 hours at 0°-5°, pH 8.5, substrate (L)-leucine-p-nitroanilide, absorption at 405 nm
T1 construct: (LAPC) from hog kidney; from tissue; host or cells: hog kidney
T1 sequence (P28839 33-519 limits assumed): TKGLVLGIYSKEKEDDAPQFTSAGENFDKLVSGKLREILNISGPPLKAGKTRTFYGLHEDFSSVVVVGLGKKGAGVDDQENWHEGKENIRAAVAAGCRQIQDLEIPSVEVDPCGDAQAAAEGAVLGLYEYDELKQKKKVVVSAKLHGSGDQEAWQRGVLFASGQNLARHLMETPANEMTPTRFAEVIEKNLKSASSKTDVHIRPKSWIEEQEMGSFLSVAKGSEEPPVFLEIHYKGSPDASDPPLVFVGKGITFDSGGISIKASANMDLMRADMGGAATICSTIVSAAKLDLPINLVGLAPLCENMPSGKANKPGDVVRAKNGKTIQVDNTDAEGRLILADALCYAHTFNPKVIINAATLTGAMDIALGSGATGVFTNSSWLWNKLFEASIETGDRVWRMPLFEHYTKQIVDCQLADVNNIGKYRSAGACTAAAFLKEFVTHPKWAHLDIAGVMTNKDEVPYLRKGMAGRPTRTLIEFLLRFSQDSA
Excerpt: (§1) An IC50 value represents an approximation of the concentration of enzyme inhibitor required to inhibit enzyme activity by fifty percent. These values represent acceptable approximations of the inhibition constant KI, the dissociation constant in the following equation: [formula] where [E] is the concentration of enzyme, [I] is the concentration of inhibitor and [EI] is the concentration of enzyme/inhibitor complex.
(§2) Determination of IC50 values for LAPC and LAPM was accomplished by spectrophotometrically or fluorometrically following the rate of formation of p-nitroaniline or β-naphthylamine from hydrolysis of (L)-leucine-p-nitroanilide or (L)-leucine-β-napthylamide, respectively, in the presence of active enzyme. IC50 values for HEDA were determined by monitoring, via high pressure liquid chromatography, the formation of destyr-enkephalin from leu-enkephalin.
Assay mixtures were prepared, containing 10×10^-8 M LAPC, 1 mg/mL BSA, 0.025M MgCl2 and 0.01M tris-HCl buffer, pH 8.5, in a total volume of 2.7 mL. Varying amounts of selected compounds 5, dissolved in the same buffer, were added to make a final volume of 3.0 mL. After storage for 112 hours at 0°-5°, 1 mL of this mixture was treated with 25 μL of a 0.1M (L)-leucine-p-nitroanilide in dimethylsulfoxide, and the rate of increase of absorption at 405 nm was measured. IC50 values were calculated as in Example 26, above.

[2] = biological target: Human enkephalin-degrading aminopeptidase (HEDA); assay: IC50 with human enkephalin-degrading aminopeptidase; assay type: biochemical; details: incubated at 37° for 2 hours, pH 7.8, substrate leu-enkephalin, HPLC
Excerpt: An IC50 value represents an approximation of the concentration of enzyme inhibitor required to inhibit enzyme activity by fifty percent. These values represent acceptable approximations of the inhibition constant KI, the dissociation constant in the following equation: [formula] where [E] is the concentration of enzyme, [I] is the concentration of inhibitor and [EI] is the concentration of enzyme/inhibitor complex. Determination of IC50 values for LAPC and LAPM was accomplished by spectrophotometrically or fluorometrically following the rate of formation of p-nitroaniline or β-naphthylamine from hydrolysis of (L)-leucine-p-nitroanilide or (L)-leucine-β-napthylamide, respectively, in the presence of active enzyme. IC50 values for HEDA were determined by monitoring, via high pressure liquid chromatography, the formation of […]-enkephalin from leu-enkephalin. […] At this point, 15 μL of a 10 mM solution of leu-enkephalin, acetic acid salt in 2 mM phosphate buffer, pH 7.8, were added to each sample mixture. […] Detection was by ultraviolet absorption at 215 nm. A ratio of a peak corresponding to ([…])-enkephalin at about […] and a peak corresponding to leu-enkephalin at about 3.9 min. indicated reaction progress. The rate of increase of this ratio corresponded to the rate of enzyme hydrolysis of substrate leu-enkephalin.

[3] = biological target: T2, Leucine aminopeptidase (Microsomal) (LAPM) (Sus scrofa, UniProt P15145); assay: IC50 with leucine aminopeptidase (microsomal); assay type: biochemical, hog; details: 72 hours at 0°-5°, pH 7.2, substrate (L)-leucine-β-napthylamide, fluorescence
T2 construct: (LAPM) from hog kidney; from tissue; host or cells: hog kidney
T2 sequence (P15145 1-963): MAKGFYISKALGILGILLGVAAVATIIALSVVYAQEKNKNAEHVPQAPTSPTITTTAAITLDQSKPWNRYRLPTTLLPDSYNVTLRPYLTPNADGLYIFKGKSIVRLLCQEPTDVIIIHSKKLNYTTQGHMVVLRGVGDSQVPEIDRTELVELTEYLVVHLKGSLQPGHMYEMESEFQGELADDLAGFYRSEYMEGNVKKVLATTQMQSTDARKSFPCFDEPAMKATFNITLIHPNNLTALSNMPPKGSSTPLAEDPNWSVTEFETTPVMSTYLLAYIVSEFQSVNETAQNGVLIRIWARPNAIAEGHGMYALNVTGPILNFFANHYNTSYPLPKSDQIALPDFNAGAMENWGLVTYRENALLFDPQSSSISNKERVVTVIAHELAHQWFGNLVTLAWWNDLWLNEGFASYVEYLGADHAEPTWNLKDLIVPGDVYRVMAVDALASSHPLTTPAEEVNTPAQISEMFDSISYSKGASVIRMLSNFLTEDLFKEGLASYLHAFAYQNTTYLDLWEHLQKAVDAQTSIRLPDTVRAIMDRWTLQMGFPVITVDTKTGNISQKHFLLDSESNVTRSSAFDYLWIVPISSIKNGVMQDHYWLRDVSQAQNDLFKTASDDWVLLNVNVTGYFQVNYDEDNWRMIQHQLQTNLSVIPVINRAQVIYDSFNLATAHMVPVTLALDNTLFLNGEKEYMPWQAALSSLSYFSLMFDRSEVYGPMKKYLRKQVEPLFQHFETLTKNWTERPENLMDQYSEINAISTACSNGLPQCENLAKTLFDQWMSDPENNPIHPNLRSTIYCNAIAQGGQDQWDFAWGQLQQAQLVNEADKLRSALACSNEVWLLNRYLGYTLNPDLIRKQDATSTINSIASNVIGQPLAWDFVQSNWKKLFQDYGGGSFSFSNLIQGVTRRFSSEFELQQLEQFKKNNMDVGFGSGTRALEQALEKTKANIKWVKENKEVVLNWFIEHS
Excerpt: as §1, §2
Assay mixtures were prepared containing 0.613 μg LAPM, 10 μg/mL bovine serum albumin (BSA). 0.1M phosphate buffer, pH 7.2, in a total volume of 2.7 mL. Measured amounts of compounds 5 to be tested for inhibitory activity were added in additional 0.1M phosphate buffer to a total volume of 3 mL. After 72 hours at 0°-5°, 1 mL of the enzyme/inhibitor mixture was treated with 4 μL of 0.2M (L)-leucine-β-napthylamide in dimethylsulfoxide, and the rate of increase of fluorescence at 410 nm, while exciting at 310 nm. was measured. Control experiments were performed identically, except no inhibitor was present. The concentration of the selected compound 5 observed to decrease reaction rates by one-half was used to determine the value of IC50 for each compound. This was accomplished by subtracting one-half the concentration of enzyme present in the sample mixtures (1.6×10^-9 M) from the inhibitor concentration observed to decrease reaction rates by one-half.

subtilisin = details: Philipp, et al., FEBS Letters 133:36 (1971); cited from earlier work
α-chymotrypsin = α-chymotrypsin (Bos taurus, UniProt P00766); details: Matteson et al., J. Am. Chem. Soc. 103:5241 (1981); cited from earlier work

IC50 [1] | IC50 [2] | IC50 [3] | SMILES | further results
 |  |  | CC(C)CB1OC(C)(C)C(C)(C)O1 [2 (R=CH3 CH(CH3)2), 4,4,5,5-tetramethyl-2-(2-methylpropyl)-1,3,2-dioxaborolane] | Leaf Hopper, % control (Leaf Hopper): 50%
 |  |  | CB1OC(C)(C)C(C)(C)O1 [2 (R=CH3), 2,4,4,5,5-pentamethyl-1,3,2-dioxaborolane] | Ant Feeding, % control (Ant): 31%
 |  |  | CCC(C)B1OC(C)(C)C(C)(C)O1 (stereo not drawn) [2 (R=CH(CH3)C2 H5), 2-(1-methylpropyl)-4,4,5,5-tetramethyl-1,3,2-dioxaborolane] | Bollworm, % control (Bollworm): 20%
 |  |  | CC1(C)OB(Cc2ccccc2)OC1(C)C [2 (R=CHC6 H5), 4,4,5,5-tetramethyl-2-(phenylmethyl)-1,3,2-dioxaborolane] | Mite, % control (Mite): 70%
 |  |  | CC(C)CC(Cl)B1OC(C)(C)C(C)(C)O1 (stereo not drawn) [3 (R=CH3 CH(CH3)2), 2-(1-chloro-3-methylbutyl)-4,4,5,5-tetramethyl-1,3,2-dioxaborolane] | Mite, % control (Mite): 64%
 |  |  | CCC(C)C(Cl)B1OC(C)(C)C(C)(C)O1 (stereo not drawn) [3 (R=CH(CH3)C2 H5), 2-(1-chloro-2-methylbutyl)-4,4,5,5-tetramethyl-1,3,2-dioxaborolane] | Bean aphid, % control (Bean aphid): 39%
 |  |  | CC1(C)OB(C(Cl)Cc2ccccc2)OC1(C)C (stereo not drawn) [3 (R=CHC6 H5), 2-(1-chloro-2-phenylethyl)-4,4,5,5-tetramethyl-1,3,2-dioxaborolane] | Bean aphid, % control (Bean aphid): 48%
10 nM | 5.2 nM | 0.2 nM | CC1(C)OB(C(N)Cc2ccccc2)OC1(C)C (stereo not drawn) [5 (R=CH2 C6 H5), 4,4,5,5-tetramethyl-α-(phenylmethyl)-1,3,2-dioxoborolane-2-methanamine, trifluoroacetic acid salt] | 
150 nM | 7.4 nM | 1.2 nM | CC(C)CC(N)B1OC(C)(C)C(C)(C)O1 (stereo not drawn) [5 (R=CH2 CH(CH3)2), 3-methyl-1-(4,4,5,5-tetramethyl-1,3,2-dioxaborolane-2-yl)-1-butamine, trifluoroacetic acid salt] | 
30000 nM | 71 nM | 6.4 nM | CC(N)B1OC(C)(C)C(C)(C)O1 (stereo not drawn) [5 (R=CH3), α,4,4,5,5,pentamethyl-1,3,2-dioxoborolane-2-methanamine, trifluoroacetic acid salt] | 
70 nM | 42 nM | 2.15 nM | CC(C)C(N)B1OC(C)(C)C(C)(C)O1 (stereo not drawn) [5 (R=CH(CH3)2), 4,4,5,5-tetramethyl-α-(1-methylethyl)-1,3,2-dioxaborolane-2-methanamine, trifluoroacetic acid salt] | 
30 nM | 41 nM | 2.2 nM | CCC(C)C(N)B1OC(C)(C)C(C)(C)O1 (stereo not drawn) [5 (R=CH(CH3)C2 H5), 4,4,5,5-tetramethyl-α-(1-methylpropyl)-1,3,2-dioxaborolane-2-methanamine, trifluoroacetic acid salt] | 
 |  |  | CC(=O)NC(Cc1ccccc1)B(O)O (stereo not drawn) [IV] | inhibition of subtilisin (subtilisin): inhibited; inhibition of α-chymotrypsin (α-chymotrypsin): observed to inhibit
